Read-outs that look alike come from different tables or passages of the source.
Tested on: mouse macrophage (RAW 264.7 cell)
Assay: Inhibition of NO production (nitrite by Greiss reaction) in LPS-treated mouse macrophages
Assay type: cell-based
Conditions: for IC50: Mus musculus
From the text: This embodiment uses an analytical method to induce the macrophage of an inflaming mouse, with combination of Greiss reaction, to measure nitrites so as to indirectly measure the output of nitrogen monoxide (NO). As NO is a significant factor in the inflaming reaction, the output of NO can be used to evaluate the degree of inflaming reaction.
In brief, culture mouse macrophage (RAW 264.7 cell) pre-cultured in a 75 cm^2 culture dish in a 96 well plate at a density of 2×10^5 cells/well. The culture solution used is DMEM with 10% FBS, 100 units/mL penicillin and 100 μg/mL streptomycin. The culturing environment is 37° C. and 5% CO2 cell incubator. Let the normally attaching cells pass or not pass the LPS (1 μg/mL) processing with addition or no addition of the compounds obtained from Embodiment II. Then, use Greiss reaction to measure the concentration of nitrites in the upper clarified liquid of the culture solution after culturing the cells.
The experimental results are shown in FIG. 3, wherein, the ability of each compound to inhibit production of NO is shown through the method of IC50. IC50 represents 50% of the inhibiting concentration, i.e., […]. From the data in the figure, it is known that the compounds obtained from Embodiment II all manifest an effect of inhibiting production of NO, i.e., an anti-inflammation effect.

[1] = RAW 264.7 cells, LPS 1 μg/mL, FIG. 3

## COc1cc(C)c(OC)c2c1OCO2 [Compound b, 1,4-dimethoxy-2,3-methylenedioxy-5-methylbenzene]
RAW264.7, RAW 264.7 cells, LPS 1 μg/mL, nitrites by Greiss reaction, FIG. 3, printed in brackets as 'about', read-out: IC50 of inhibiting production of NO (approximate range)
  IC50: 20 to 35 µg/mL
RAW264.7, RAW 264.7 cells, LPS 1 μg/mL, nitrites by Greiss reaction, FIG. 3, read-out: IC50 of inhibiting production of NO
  IC50: > 20 µg/mL

## C=C(C)C#Cc1c(OC)cc(OC)c(OC)c1C [Compound d, Antrocamphin A]
[1]
  anti-inflammation ability (inhibiting production of NO), in words: excellent anti-inflammation ability

## C=C(C)C#Cc1c(C)c2c(c(OC)c1OC)OCO2 [Compound h, Antrocamphin C]
[1]
  anti-inflammation ability (inhibiting production of NO), in words: excellent anti-inflammation ability

## C=C(CC[C@@H](C(=O)O)[C@H]1CC[C@@]2(C)C3=CC[C@H]4C(C)(C)[C@@H](O)CC[C@]4(C)C3=CC[C@]12C)C(C)C [Compound m, Dehydroeburicoic acid]
RAW264.7, read-out: IC50 of inhibiting production of NO
  IC50: > 20 µg/mL
RAW264.7, read-out: IC50 of inhibiting production of NO (approximate range)
  IC50: 20 to 35 µg/mL

Source: patent US8791156B2, “Polyacetylene compound, an extract containing the same and application thereof” (priority 2011, dated 2014)
